Like-named read-outs stand apart in the source and are kept apart here.
Assays:
[1] = tested on: HepG2 subcutaneous tumor xenograft; experiment: HepG2 subcutaneous tumor xenograft, tumor volume; type: in vivo, mice; conditions: for Mean Tumor Volume: p.o, BID for 5 days
Method: The pharmacodynamic (PD) profiling of Compound 101 was determined in Athymic nude mice bearing subcutaneous tumor xenograft model.
(§1) HepG2 (Hepatocellular carcinoma cell line containing the C228T TERTp mutation) cells were implanted into the flanks of Athymic Nude-Foxn1nu mice. Once tumors reached 250-300 mm3 in size as measured by caliper, treatment of Compound 101 was initiated. Compound 101 was administered orally (P.O.) for 5 days BID at either 25 mg/kg, 50 mg/kg, or vehicle control (N=4 per group). Body weight and tumor size were measured on days 1, 3, and 5. Two hours after final dose administration, mice were sacrificed, and tumors extracted for RNA isolation and TERT mRNA expression analysis via RT-qPCR. Both TERT and GUSB were measured using SYBR green primers and relative TERT levels were analyzed using the delta delta CT method.

Mutant TERT = experiment: HepG2 hTERT mRNA assay (qPCR); type: cell-based, human; conditions: Homo sapiens; HepG2 cells (mutated TERT), 48 hours, TERT mRNA via qPCR
Method: (§2) HepG2 cells (hepatocyte carcinoma (HCC) cells; with mutated TERT) or HEK293T cells (with wild type (wt) TERT) were seeded at 4,000 cells/well in 96-well plates. The following day, test compounds were added to cells for at concentrations of 25 uM, 12.5 uM, 6.25 uM, 3.125 uM, 1.563 uM, 0.781 uM, 0.391 uM, 0.195 uM, 0.098 uM or vehicle control (0.1% DMSO). Each condition was tested in three replicate wells. 48 hours post drug addition, the cells were harvested for RNA using the 96-Magmax RNA Isolation kit (Cat. No. AM1830). RNA was converted to cDNA using the Superscript III First strand cDNA synthesis kit (Cat. No. 18080051). RNA and cDNA concentration and quality were determined using the NanoQuant nucleic acid quantification method. 500 ng cDNA from each sample was used to detect TERT mRNA via qPCR. GUSB was also measured as an internal control and fold change to vehicle control was determined using the delta CT method.

TERT [2] = experiment: TERT expression in GBM39 orthotopic xenograft tumors; type: in vivo, mice; conditions: 50, 100 or 200 mg/kg BID, oral gavage, 5 days, FIG. 3
Method: (§3) In this study, Compound 101 was dosed twice daily (BID) via oral gavage to mice with GBM39 orthotopic xenograft (GBM39 cells). Tumor size was measured via Bioluminescence imaging (BLI). BLI readings were taken on treatment day 1 and day 5. Tumors were also harvested for downstream RNA analysis.
(§4) For each dose group (N=6), the following steps were performed. Briefly, athymic nu/nu mice were injected intracranially with patient-derived Glioblastoma cells. Animals began treatment once tumor BLI levels reach the range of 1×10^8-5×10^8. A dosing solution of Compound 101 (50 mg/kd, 100 mg/kd, or 200 mg/kg) or vehicle were administered by oral gavage (P.O., 50-100 uL volume) for 5 days. The dosing solutions were prepared similar to the process in Example 4. Dosing was twice daily on days 1-4. On day 5 the mice received a single dose, prior to harvest. Three hours after the last dose, mice were sacrificed and their brains were harvested and processed for analysis. […] TERT expression was also found to be reduced in all three dose groups (FIG. 3).

[3] = Body weight in GBM orthotopic xenograft survival study; type: in vivo, mice; conditions: highest dosage group (50 mg/kg BID), first 3 dosing days
Method: (§5) For this study, treatment began on day 7 post tumor cell implant and ceased on day 20 for a total of 14 days of dosing. Compound 101 was formulated with Solutol, DMSO and water and administered by oral gavage twice daily (BID). The dosage groups were vehicle control, 50 mg/kg BID, 25 mg/kg BID, and 10 mg/kg BID. […] Tumor size was monitored following injection of luciferin (150 mg/kg i.p.) 1-2 times weekly by bioluminescence imaging (Xenogen IVIS Spectrum Imaging System). Animals were weighed three times per week, and daily after initial weight loss is observed.

wt TERT = experiment: HEK293T hTERT mRNA assay (qPCR); type: cell-based, human; conditions: for IC50: Homo sapiens
Method: as §2

[4] = Body weight in HepG2 xenograft mice; type: in vivo; conditions: p.o, BID for 5 days
Method: as §1

[5] = tested on: GBM39 orthotopic xenograft; experiment: GBM39 orthotopic xenograft, tumor BLI; type: in vivo, mice; conditions: for tumor BLI change: 5 days
Method: as §3, §4
In a second study with Compound 101 in the GBM mice model, the 200 mg/kg dosing group was changed to a 100 mg/kg once daily dosing (QD). The baseline BLI readings were taken two days prior to 1st treatment.

[6] = tested on: GBM39 cells orthotopic xenograft; experiment: GBM orthotopic xenograft survival study; type: in vivo, mice; conditions: oral gavage, 14 days of dosing
Method: GBM39 cells, a human PDX model of GBM, were selected for this study. GBM39 cells were stably transduced (MOI=3) with Firefly Luciferase Lentifect Purified Lentiviral Particles (Genecopoiea, #LPP-FLUC-Lv105) and were verified to be expressing luciferase stably and at similar levels 48 h pre-xenograft. A total of 1-4×10E4 luciferase-expressing PDX cells in 4 uL volume were injected into the right frontal cortex of athymic nu/nu mice (6-7-wk.-old, female). Animals were randomized into treatment groups and dosing initiated once tumors reach an average BLI of 1×10^8.
as §5

TERT [7] = experiment: TERT mRNA expression (RT-qPCR) in HepG2 xenograft tumors; type: in vivo, mice; conditions: for TERT Expression (RT-qPCR) Mean Fold: p.o, BID for 5 days
Method: as §1

HEK293 cells = experiment: HEK293 cytostatic; type: cell-based, human; conditions: for IC50: Homo sapiens, HEK293, HEK293 cells, read-out: wt Tert IC50 uM HEK293 cytostatic
HepG2 cells = experiment: HepG2 cytostatic; type: cell-based, human; conditions: for IC50: Homo sapiens
[8] = oral, 25 mg/kg and 50 mg/kg BID, 5 days (both dose levels)
[9] = HEK-293T, wild type TERT, read-out: wt TERT IC50
[10] = HEK293 cells (wt TERT), 48 hours, class symbols, read-out: wt TERT IC50 uM HEK293

O=C(O)C[C@@H]1C[C@@H](c2ccc(C(F)(F)F)cc2)CN(Cc2ccc(C(F)(F)F)cc2)C1 [Compound 101, 2-((3S,5S)-1-(4-(trifluoromethyl)benzyl)-5-(4-(trifluoromethyl)phenyl)piperidin-3-yl)acetic acid]
Mean Tumor Volume ([1]; 25 mg/kg, Day 1): 252.22 mm3
Mean Tumor Volume ([1]; 25 mg/kg, Day 3): 230.02 mm3
Mean Tumor Volume ([1]; 25 mg/kg, Day 5): 197.97 mm3
Mean Tumor Volume ([1]; 50 mg/kg, Day 1): 251.37 mm3
Mean Tumor Volume ([1]; 50 mg/kg, Day 3): 212.58 mm3
Mean Tumor Volume ([1]; 50 mg/kg, Day 5): 168.34 mm3
tumor volume change [1, 8]: tumor regression
IC50 (Mutant TERT): < 0.5 µM
TERT expression in tumor (TERT [2]): reduced
body weight [3]: mice losing weight
wt TERT IC50 uM HEK293 (wt TERT; HEK293 cells (wt TERT), 48 hours, class symbols): “++”-IA
% Mean body weight change ([4]; 25 mg/kg, DAY 1): 0%
% Mean body weight change ([4]; 25 mg/kg, DAY 3): −4.36%
% Mean body weight change ([4]; 25 mg/kg, DAY 5): −3.65%
% Mean body weight change ([4]; 50 mg/kg, DAY 1): 0%
% Mean body weight change ([4]; 50 mg/kg, DAY 3): −11.09%
% Mean body weight change ([4]; 50 mg/kg, DAY 5): −10.68%
tumor BLI change ([5]; 50, 100 or 200 mg/kg BID, oral gavage, FIG. 2): significant tumor reduction
tumor size ([5]; second study, 100 mg/kg once daily dosing (QD)): sufficient to reduce tumor size
tumor BLI change ([5]; second study: 50 mg/kg BID, 100 mg/kg BID or 100 mg/kg QD, FIG. 4): significant tumor reduction
Median Survival ([6]; 20 mg/kg/day, bid (n = 10)): 50
Median Survival ([6]; 50 mg/kg/day, bid (n = 10)): 62.5
Median Survival ([6]; 100 mg/kg/day, bid × 3 days, then 50 mg/kg/day, qd (n = 9)): Undefined
TERT Expression (RT-qPCR) Mean Fold (TERT [7]; 25 mg/kg): 0.21 Fold
TERT Expression (RT-qPCR) Mean Fold (TERT [7]; 50 mg/kg): 0.19 Fold
TERT mRNA in tumor (TERT [7]; [8]): TERT mRNA reduction

COc1ccc([C@H]2C[C@H](CC(=O)O)CN(Cc3ccc(C(F)(F)F)cc3)C2)cc1 (racemic) [Compound 105, 2-((anti)-5-(4-methoxyphenyl)-1-(4-(trifluoromethyl)benzyl)piperidin-3-yl)acetic acid]
IC50 (Mutant TERT): 0.5 to 5 µM
IC50 (HEK293 cells): 5 to 25 µM
IC50 (wt TERT; [9]): > 25 µM
IC50 (wt TERT; [10]): > 25 µM
IC50 (HepG2 cells): 5 to 25 µM

N#Cc1ccc(CN2C[C@H](CC(=O)O)C[C@@H](c3ccc(C(F)(F)F)cc3)C2)cc1 [Compound 115, 2-((3S,5S)-1-(4-cyanobenzyl)-5-(4-(trifluoromethyl)phenyl)piperidin-3-yl)acetic acid]
IC50 (Mutant TERT): 0.5 to 5 µM
IC50 (HEK293 cells): 5 to 25 µM
IC50 (wt TERT; [9]): > 25 µM
IC50 (wt TERT; [10]): > 25 µM
IC50 (HepG2 cells): 0.5 to 5 µM

O=C(O)CC1CC(c2ccc(C(F)(F)F)cc2)CN(Cc2ccc(C(F)(F)F)cc2)C1 (racemic) [Compound 100, rac-2-((anti)-1-(4-(trifluoromethyl)benzyl)-5-(4-(trifluoromethyl)phenyl)piperidin-3-yl)acetic acid]
IC50 (Mutant TERT): 0.5 to 5 µM
wt Tert IC50 uM HEK293 cytostatic (HEK293 cells; HEK293 cells): “++”-“+”
IC50 (wt TERT; [9]): > 25 µM
IC50 (wt TERT; [10]): > 25 µM
Cytostatic IC50 uM HepG2 cytostatic (HepG2 cells): “++”-“+”

C#Cc1ccc(CN2C[C@H](CC(=O)O)C[C@@H](c3ccc(C(F)(F)F)cc3)C2)cc1 [Compound 112, 2-((3S,5S)-1-(4-ethynylbenzyl)-5-(4-(trifluoromethyl)phenyl)piperidin-3-yl)acetic acid]
IC50 (Mutant TERT): < 0.5 µM
IC50 (HEK293 cells): > 25 µM
IC50 (wt TERT; [9]): > 25 µM
IC50 (wt TERT; [10]): > 25 µM
IC50 (HepG2 cells): 0.5 to 5 µM

N#Cc1ccc([C@@H]2C[C@@H](CC(=O)O)CN(Cc3ccc(C(F)(F)F)cc3)C2)cc1 (racemic) [Compound 107, 2-((anti)-5-(4-cyanophenyl)-1-(4-(trifluoromethyl)benzyl)piperidin-3-yl)acetic acid]
IC50 (Mutant TERT): 5 to 25 µM
IC50 (HEK293 cells): > 25 µM
IC50 (wt TERT; [9]): > 25 µM
IC50 (wt TERT; [10]): > 25 µM
IC50 (HepG2 cells): 5 to 25 µM

O=C(O)C[C@H]1C[C@H](c2ccc(C(F)(F)F)cc2)CN(Cc2ccc(C(F)(F)F)cc2)C1 [Compound 102, 2-((3R,5R)-1-(4-(trifluoromethyl)benzyl)-5-(4-(trifluoromethyl)phenyl)piperidin-3-yl)acetic acid]
IC50 (Mutant TERT): 5 to 25 µM
IC50 (HEK293 cells): 5 to 25 µM
IC50 (wt TERT; [9]): > 25 µM
IC50 (wt TERT; [10]): > 25 µM
IC50 (HepG2 cells): 5 to 25 µM
